Results: PubChem BioAssay AID248 (DTP/NCI, 2004)
Several values for one entry are separate records, joined by “and”; a condition that tells them apart may be missing. Identical values can stand only once. Inconclusive results and toxic doses are left out. Rule as the data show it: active = T/C of 150% or more; inactive = T/C below 125%.

System: L1210 leukemia ip in BDF1 mice, survival T/C
Assay: NCI In Vivo Anticancer Drug Screen. Data for tumor model L1210 Leukemia (intraperitoneal) in B6D2F1 (BDF1) mice
Settings: endpoint: mean survival time, higher = longer survival
Summary of the method: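 Value reflects the ratio of survival in compound-treated mice to survival in vehicle-treated controls, with both groups carrying the same transplanted tumor.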

[1] = dose: 100.0 mg/kg/injection, schedule: Q04DX003 (ip), vehicle: saline with Tween-80
[2] = dose: 100.0 mg/kg/injection, schedule: Q01DX001 (ip), vehicle: other
[3] = dose: 200.0 mg/kg/injection, schedule: Q01DX001 (ip), vehicle: other
[4] = dose: 400.0 mg/kg/injection, schedule: Q01DX001 (ip), vehicle: other
[5] = dose: 100.0 mg/kg/injection, schedule: Q01DX009 (ip), vehicle: Klucel (hydroxypropylcellulose) (HPC)
[6] = dose: 200.0 mg/kg/injection, schedule: Q01DX009 (ip), vehicle: Klucel (hydroxypropylcellulose) (HPC)
[7] = dose: 400.0 mg/kg/injection, schedule: Q01DX009 (ip), vehicle: Klucel (hydroxypropylcellulose) (HPC)
[8] = dose: 200.0 mg/kg/injection, schedule: Q04DX003 (ip), vehicle: saline with Tween-80
[9] = dose: 400.0 mg/kg/injection, schedule: Q04DX003 (ip), vehicle: saline with Tween-80
[10] = dose: 100.0 mg/kg/injection, schedule: Q04DX003 (ip), vehicle: Klucel (hydroxypropylcellulose) (HPC)
[11] = dose: 200.0 mg/kg/injection, schedule: Q04DX003 (ip), vehicle: Klucel (hydroxypropylcellulose) (HPC)
[12] = dose: 400.0 mg/kg/injection, schedule: Q04DX003 (ip), vehicle: Klucel (hydroxypropylcellulose) (HPC)
[13] = dose: 100.0 mg/kg/injection, schedule: Q04DX003 (ip), vehicle: saline
[14] = dose: 200.0 mg/kg/injection, schedule: Q04DX003 (ip), vehicle: saline
[15] = dose: 400.0 mg/kg/injection, schedule: Q04DX003 (ip), vehicle: saline
[16] = dose: 100.0 mg/kg/injection, schedule: Q04DX002 (ip), vehicle: Klucel (hydroxypropylcellulose) (HPC)
[17] = dose: 100.0 mg/kg/injection, schedule: Q01DX001 (ip), vehicle: carboxymethylcellulose (CMC)
[18] = dose: 200.0 mg/kg/injection, schedule: Q01DX001 (ip), vehicle: carboxymethylcellulose (CMC)
[19] = dose: 400.0 mg/kg/injection, schedule: Q01DX001 (ip), vehicle: carboxymethylcellulose (CMC)
[20] = dose: 200.0 mg/kg/injection, schedule: Q04DX002 (ip), vehicle: Klucel (hydroxypropylcellulose) (HPC)
[21] = dose: 400.0 mg/kg/injection, schedule: Q04DX002 (ip), vehicle: Klucel (hydroxypropylcellulose) (HPC)

Measured: T/C

ClC(Cl)C(c1ccccc1)c1ccccc1
inactive: dose: 100.0 mg/kg/injection, schedule: Q01DX001 (ip), vehicle: Klucel (hydroxypropylcellulose) (HPC) 100 % of control | dose: 200.0 mg/kg/injection, schedule: Q01DX001 (ip), vehicle: Klucel (hydroxypropylcellulose) (HPC) 97 % of control | dose: 400.0 mg/kg/injection, schedule: Q01DX001 (ip), vehicle: Klucel (hydroxypropylcellulose) (HPC) 92 % of control

CN(C)CCSCC(OC(=O)c1ccccc1)c1ccccc1 (stereo not given)
inactive: [1] 94 % of control

CO/C=C(\C)C(=O)NC(=O)Nc1ccccc1
inactive: [2] 93 % of control | [3] 98 % of control | [4] 96 % of control

CCOC(O)C(F)(F)F (stereo not given)
inactive: dose: 50.0 mg/kg/injection, schedule: Q01DX015 (ip), vehicle: saline 93 % of control | dose: 100.0 mg/kg/injection, schedule: Q01DX001 (ip), vehicle: saline 98 % of control | dose: 100.0 mg/kg/injection, schedule: Q01DX009 (ip), vehicle: acetone 103 % of control | dose: 100.0 mg/kg/injection, schedule: Q01DX015 (ip), vehicle: saline 96 % of control | dose: 200.0 mg/kg/injection, schedule: Q01DX001 (ip), vehicle: saline 112 % of control | dose: 200.0 mg/kg/injection, schedule: Q01DX009 (ip), vehicle: acetone 102 % of control | dose: 200.0 mg/kg/injection, schedule: Q01DX015 (ip), vehicle: saline 88 % of control | dose: 400.0 mg/kg/injection, schedule: Q01DX001 (ip), vehicle: saline 102 % of control

O=C1OC(c2ccc([N+](=O)[O-])cc2)=N/C1=C\c1cc(Br)ccc1O
inactive: [5] 91 % of control | [6] 96 % of control | [7] 93 % of control

O=[N+]([O-])C=C([SH2+])[SH2+].O=[N+]([O-])C=C([SH2+])[SH2+].[Ni+2].c1ccc(C[P+](c2ccccc2)(c2ccccc2)c2ccccc2)cc1
inactive: dose: 75.0 mg/kg/injection, schedule: Q04DX003 (ip), vehicle: saline 101 % of control | dose: 150.0 mg/kg/injection, schedule: Q04DX003 (ip), vehicle: saline 101 % of control

CCOC(=O)C(=CN1CCCC1)C(=O)OCC
inactive: dose: 100.0 mg/kg/injection, schedule: Q01DX009 (ip), vehicle: saline 104 % of control | [1] 98 % of control | dose: 200.0 mg/kg/injection, schedule: Q01DX009 (ip), vehicle: saline 109 % of control | [8] 98 % of control | dose: 400.0 mg/kg/injection, schedule: Q01DX009 (ip), vehicle: saline 96 % of control | [9] 93 % of control

COC(=O)C1=CN=NC1=[N+]=[N-]
inactive: dose: 10.0 mg/kg/injection, schedule: Q01DX001 (ip), vehicle: saline 103 % of control | dose: 20.0 mg/kg/injection, schedule: Q01DX001 (ip), vehicle: saline 97 % of control

O=C1C2CC=CCC2C(=O)N1SC(Cl)(Cl)Cl (stereo not given)
inactive: dose: 0.78 mg/kg/injection, schedule: Q01DX009 (ip), vehicle: saline with Tween-80 107 % of control | dose: 1.56 mg/kg/injection, schedule: Q01DX009 (ip), vehicle: saline with Tween-80 104 % of control | dose: 3.12 mg/kg/injection, schedule: Q01DX009 (ip), vehicle: saline with Tween-80 103 % of control | dose: 6.25 mg/kg/injection, schedule: Q01DX009 (ip), vehicle: saline with Tween-80 103 % of control | dose: 12.5 mg/kg/injection, schedule: Q01DX009 (ip), vehicle: saline with Tween-80 97 % of control | dose: 25.0 mg/kg/injection, schedule: Q01DX009 (ip), vehicle: saline with Tween-80 98 % of control

COc1ccc(C(OC2OC(n3cnc4c(=S)nc(N)[nH]c43)CC2OC(C)=O)(c2ccccc2)c2ccc(OC)cc2)cc1 (stereo not given)
inactive: [5] 97 % of control | [10] 101 % of control | [6] 97 % of control | [11] 97 % of control | [7] 95 % of control | [12] 97 % of control

CCOC(=O)C(=CNc1cccc(N)n1)C(=O)OCC
inactive: [10] 95 % of control | [11] 97 % of control | [12] 92 % of control

C[Si](C)(O[Si](C)(C)C1C=CC=C1)C1C=CC=C1
inactive: dose: 12.5 mg/kg/injection, schedule: Q01DX001 (ip), vehicle: Klucel (hydroxypropylcellulose) (HPC) 91 % of control | dose: 25.0 mg/kg/injection, schedule: Q01DX001 (ip), vehicle: Klucel (hydroxypropylcellulose) (HPC) 91 % of control | dose: 50.0 mg/kg/injection, schedule: Q01DX001 (ip), vehicle: Klucel (hydroxypropylcellulose) (HPC) 88 % of control

O=C1OCC2(CO)SC(c3ccccc3)NC12 (stereo not given)
inactive: [13] 98 % of control | [14] 92 % of control | [15] 98 % of control

CCCN(CCC)CCNCC(Cc1ccccc1)c1ccccc1 (stereo not given)
inactive: dose: 50.0 mg/kg/injection, schedule: Q04DX002 (ip), vehicle: Klucel (hydroxypropylcellulose) (HPC) 99 % of control | [16] 99 % of control

CCOC(=O)c1ccc(NC(=O)c2ccc(F)cc2)cc1
inactive: [17] 97 % of control and 105 % of control | dose: 100.0 mg/kg/injection, schedule: Q01DX009 (ip), vehicle: carboxymethylcellulose (CMC) 103 % of control and 105 % of control | dose: 100.0 mg/kg/injection, schedule: Q04DX002 (ip), vehicle: carboxymethylcellulose (CMC) 96 % of control and 97 % of control | dose: 100.0 mg/kg/injection, schedule: Q04DX003 (ip), vehicle: carboxymethylcellulose (CMC) 94 % of control and 98 % of control | [18] 101 % of control and 91 % of control | dose: 200.0 mg/kg/injection, schedule: Q01DX009 (ip), vehicle: carboxymethylcellulose (CMC) 94 % of control and 91 % of control | dose: 200.0 mg/kg/injection, schedule: Q04DX002 (ip), vehicle: carboxymethylcellulose (CMC) 97 % of control and 100 % of control | dose: 200.0 mg/kg/injection, schedule: Q04DX003 (ip), vehicle: carboxymethylcellulose (CMC) 95 % of control and 91 % of control | [19] 96 % of control and 90 % of control | dose: 400.0 mg/kg/injection, schedule: Q01DX009 (ip), vehicle: carboxymethylcellulose (CMC) 93 % of control and 106 % of control | dose: 400.0 mg/kg/injection, schedule: Q04DX002 (ip), vehicle: carboxymethylcellulose (CMC) 92 % of control and 90 % of control | dose: 400.0 mg/kg/injection, schedule: Q04DX003 (ip), vehicle: carboxymethylcellulose (CMC) 100 % of control and 91 % of control

C[Si](C)(C)Oc1c(Cl)cc(Cl)cc1Cl
inactive: [1] 102 % of control | [8] 98 % of control | [9] 91 % of control

CCc1ccc(C(C)=O)o1
inactive: [2] 104 % of control | [3] 108 % of control | [4] 111 % of control

O=C(OCc1ccccc1CN1CCCC1)c1ccc(Cl)cc1
inactive: [16] 111 % of control | [20] 96 % of control | [21] 111 % of control

Cc1ccc(S(=O)(=O)OCCN(CCOS(=O)(=O)c2ccc(C)cc2)S(=O)(=O)c2ccc(C)cc2)cc1
inactive: [5] 94 % of control | [10] 94 % of control | [6] 89 % of control | [11] 91 % of control | [7] 96 % of control | [12] 91 % of control

CCCCCCCCC(=O)N1CCCCC1C (stereo not given)
inactive: [16] 96 % of control | [20] 100 % of control | [21] 88 % of control

O=c1oc2ccccc2c(=S)n1-c1ccccc1
inactive: [13] 105 % of control | [14] 94 % of control | [15] 91 % of control

O=C(O)/C=C/c1nc2ccccc2c(=O)[nH]1
inactive: dose: 50.0 mg/kg/injection, schedule: Q01DX009 (ip), vehicle: Klucel (hydroxypropylcellulose) (HPC) 114 % of control | [5] 100 % of control

Br[CH2][Sn]([Br])([Br])[CH2]Br
inactive: dose: 6.25 mg/kg/injection, schedule: Q04DX002 (ip), vehicle: saline with Tween-80 101 % of control | dose: 12.5 mg/kg/injection, schedule: Q04DX002 (ip), vehicle: saline with Tween-80 101 % of control | dose: 25.0 mg/kg/injection, schedule: Q04DX002 (ip), vehicle: saline with Tween-80 116 % of control

O=C(O)C1CC=CCC1c1c2ccc(=O)cc-2oc2cc(O)ccc12 (stereo not given)
inactive: [13] 98 % of control | [14] 94 % of control | [15] 91 % of control

O=[N+]([O-])C1CC=CCC1c1ccc(C2CC=CCC2[N+](=O)[O-])cc1 (stereo not given)
inactive: [17] 96 % of control | [18] 94 % of control | [19] 92 % of control
